Laboratory results from patent US20230339835A1, “2,3,5-TRIMETHYL-6-NONYLCYCLOHEXA-2,5-DIENE-1,4-DIONE FOR SUPPRESSING AND TREATING ALPHA-SYNUCLEINOPATHIES, TAUOPATHIES, AND OTHER DISORDERS” (PTC THERAPEUTICS, INC., priority 2018, published 2023).
≈ marks a conversion by molar mass, not a printed value. Marks after values point to notes of the source that are not given here.

Experiments:
[1] = target: T1, pre-formed fibrils (PFFs) of human wild-type Tau K18 fragment (Homo sapiens, UniProt P10636); assay: Cell-free Tau K18 WT pre-formed fibril disaggregation assay (Thioflavin T); assay type: biochemical; conditions: 10 μM Tau PFFs, 30 μM compound, 94 hr, vs vehicle (Dunnett's test)
T1 construct: human recombinant Tau K18 WT fragment were generated by incubating the Tau K18 monomer (Bio-Techne®); purchased Bio-Techne
Protocol: Summary: Compounds 2,3,5-trimethyl-6-nonylcyclohexa-2,5-diene-1,4-dione (C9), 2,3,5-trimethyl-6-octylcyclohexa-2,5-diene-1,4-dione (C8), and 2,3,5-trimethyl-6-heptylcyclohexa-2,5-diene-1,4-dione (C7) were tested for their ability to disaggregate pre-formed fibrils (PFFs) of human wild-type Tau K18 fragment, as measured by the decrease in fluorescence intensity of the aggregate-binding fluorophore, Thioflavin T, over time.
Experimental Methods: Pre-formed fibrils (PFFs) of the human recombinant Tau K18 WT fragment were generated by incubating the Tau K18 monomer (Bio-Techne®) with sodium heparin in a 1:1 ratio in presence of excess (50×) tris(2-carboxyethyl)phosphine (TCEP) as the reducing agent in Dulbecco's phosphate-buffered saline (DPBS) buffer (pH 7.4). The mixture was incubated for 4 days at 37° C. without agitation to yield PFFs in 100 μM final concentration.
Cell-free Tau disaggregation assays were set up with 10 μM of Tau PFFs in the presence of 30 μM of compound (from 10 mM stocks in DMSO) or in 0.3% (v/v) DMSO as vehicle. All solutions were prepared in DPBS buffer (pH 7.4) with 0.03% (v/v) NaN3 and 5 μM Thioflavin T (ThT), prepared as a master mix before addition of the protein or compounds. A protein master mix was first prepared the day before the assay to pre-equilibrate the Tau PFFs at 10 μM at ambient temperature and atmosphere. The next day, the pre-mixed protein solution was separated into 4 tubes (1 per condition). […]
(§1) Tau PFFs solution+/−compound and background samples were then loaded into wells of an optically transparent 96-well plate with black walls, which was sealed with a LightCycler® 480 seal (Roche Life Science), incubated at 37° C. for 15 minutes to equilibrate and the data collection was initiated. A Tecan M1000 spectrometer was used to collect data points on ThT fluorescence (ex/em 450/490 nm) every 30 minutes without agitation.
Data Analysis and Results: The maximum fluorescence intensity unit (FIU) value of the vehicle-treated Tau samples was set to 100%, to which all other FIU values were normalized relatively. […]

[2] = target: T2, recombinant human αSynuclein (Homo sapiens, UniProt P37840); assay: Cell-free αSynuclein aggregation assay (Thioflavin T); assay type: biochemical; conditions: 200 μM αSynuclein, 100 μM compound, t=24 hours, one-way ANOVA with Tukey's test
T2 construct: purchased Proteos, Inc
Protocol: Summary: The compound 2,3,5-trimethyl-6-nonylcyclohexa-2,5-diene-1,4-dione (“C9”), and its C8 (2,3,5-trimethyl-6-octylcyclohexa-2,5-diene-1,4-dione) and C7 (2,3,5-trimethyl-6-heptylcyclohexa-2,5-diene-1,4-dione) analogs were tested for their function as inhibitors of αSynuclein aggregation, as measured by the presence and extent of a lag phase in the kinetics of protein aggregation. Changes in the fluorescence intensity by the aggregate-binding fluorophore, Thioflavin T, were followed to report on the protein aggregation as a function of time.
Experimental Methods: Cell-free αSynuclein aggregation assays were set up with 200 μM of recombinant human αSynuclein (Proteos, Inc.) in the presence of 100 μM of compound (from 10 mM stock solutions in DMSO) or in 1% (v/v) DMSO as vehicle. All solutions were prepared in Dulbecco's phosphate-buffered saline (DPBS) buffer (pH 7.4) with 0.03% (v/v) NaN3 and 5 μM Thioflavin T (ThT), prepared as a master mix before addition of the protein or compounds. A protein master mix was then prepared and separated into 4 tubes (1 per condition). […]
as §1, with “Protein” for “Tau PFFs”, “walls (Corning Costar),” for “walls,”, “equilibrate, after which” for “equilibrate and”, “started.” for “initiated.”, “minutes. The plate was agitated by shaking in between fluorescence reads.” for “minutes without agitation.”
Data Analysis and Results: Fluorescence intensity data were collected on all the samples over time. The endpoint fluorescence intensity unit (FIU) value of the mean of vehicle-treated αSyn samples was set to 100%, and all other FIU values were normalized relative to it (see FIG. 1A). The end results were plotted as normalized ThT fluorescence (%) with respect to time.
Normalized ThT fluorescence values (% FIU) at t=24 hours were used to compare samples (see FIG. 1B). […]

[3] = test system: N27 rat dopaminergic cells overexpressing a truncated human αSynuclein-GFP fusion protein; assay: Inhibition of RSL3-induced αSynuclein aggregation in N27 cells; assay type: cell-based; conditions: 60 nM RSL3, 70 nM compound, 24 hr, vs RSL3 only (Dunnett's test)
Protocol: N27 rat dopaminergic cells (purchased from EMD Millipore, SCC048) were transformed to stably overexpress truncated α-Synuclein fused with green fluorescent protein (GFP) with a plasmid construct obtained from Origene (RG221446). Cells were maintained in selection media which consisted of RPMI 1640 media supplemented with 10% (v/v) fetal bovine serum (Millipore, ES-009-B), 1% (v/v) Pencillin-Streptomycin (Gibco, 15140-122), 1% (v/v) L-Glutamine (Gibco, 25030-081) and 500 μg/mL of G418 (Gibco, 10131-027).
N27 rat dopaminergic cells overexpressing a truncated (112 amino acid) human αSynuclein-GFP fusion protein, as described above, were maintained in normal culture conditions as described above. The day before the experiment, cells were plated in 96 well optical bottom, black walled plates at 3,000 cells/well, and maintained at 37° C. for 24 hr. The experiment was initiated by co-treating cells with (1S,3R)-methyl 2-(2-chloroacetyl)-1-(4-(methoxycarbonyl)phenyl)-2,3,4,9-tetrahydro-1H-pyrido[3,4-b]indole-3-carboxylate (1S,3R-RSL3, described by Yang et al., Cell 156:317-331 (2014)) (60 nM) and 70 nM compounds (2,3,5-trimethyl-6-nonylcyclohexa-2,5-diene-1,4-dione (C9), 2,3,5-trimethyl-6-octylcyclohexa-2,5-diene-1,4-dione (C8), or 2,3,5-trimethyl-6-heptylcyclohexa-2,5-diene-1,4-dione (C7)) using a D300e compound printer (Tecan), and placed back in the incubator at 37° C. for 24 hr. Cells were fixed with 4% paraformaldehyde for 15 minutes at room temperature, washed 3 times with Dulbecco's phosphate-buffered saline (DPBS) buffer, and then incubated at room temperature for 48 hr with 1% Triton-X 100 solution (in DPBS) to enable selective labeling of aggregated αSynuclein. Cells were then washed and standard immunocytochemistry (ICC) methods were employed to label total αSynuclein (mouse anti-αSynuclein, 1:250, BD Biosciences). Cells were incubated with primary antibody overnight at 4° C. and then washed with DPBS 3 times the following day. Cells were then incubated at room temperature with a fluorescently conjugated secondary antibody (goat anti-mouse Alexa 647, Invitrogen) for 2 hr at room temperature. 10 nM Hoechst was also added to label nuclei, and cells were imaged on a high-content imaging platform (ThermoFisher, HSC Cellomics Arrayscan) to quantify total aggregated αSynuclein (see FIG. 3A).
Statistical analysis of samples was performed via ordinary one-way ANOVA analysis with Dunnett's multiple comparisons test, comparing RSL3 only-treated vs. RSL3 plus compound-treated cells.

[4] = Humidification cycling by dynamic vapor sorption (DVS); assay type: physicochemical
Protocol: As-received material (ID 1-1) was subjected to humidification cycling by dynamic vapor sorption (DVS) instrument. The material underwent a 0.01% change in mass in the 15-75% relative humidity range, and a 0.08% change in mass over the full range of 2-95% relative humidity. Following humidification cycling, the solid was analyzed by XRPD.

[5] = Solubility in simulated fluids and water; assay type: physicochemical; conditions: for solubility at 24 h: thermodynamic from solid
Protocol: Solubility of Pattern A and melted solid was assessed in Fasted-State Simulated Gastric Fluid (FaSSGF), Fed-State Simulated Intestinal Fluid (FeSSIF), and Fasted-State Simulated Intestinal Fluid (FaSSIF), water, and 0.5% methyl cellulose+2% Tween80 in water. Five foil-covered 4 mL vials were prepared with 11-13 mg of as-received material (ID-1-1), 10 mm stir bars were included. Five foil-covered 4 mL vials containing between 11-13 mg of C9 were melted on a hot plate at 70° C. for 10 min and cooled to room temperature for 5 min, 10 mm stir bars were included.
Slurries were prepared with the as-received material ID-1-1 (Pattern A) and melted C9, each in 2.5 mL of simulated fluids (including 0.5% methyl cellulose+2% Tween80 in water), or water. The samples containing melted active pharmaceutical ingredient (API) were sonicated briefly, as they appeared to contain clumps of material. […] For solubility analysis 1 mL of each sample was pipetted into a syringe filter, the first 0.5 mL was filtered back into the source vial and the remaining 0.5 mL was filtered into HPLC vials with low volume inserts.
The response factor calculated with the calibration points was used to determine the concentrations of API in the simulated fluids and water. Calibration samples were prepared with as-received material (ID-1-1) in ACN. The concentrations and peak areas for each calibration point were plotted and a response factor calculated for solubility assessment.
Due to high pressures observed with the UPLC column, a different column and a modified method was employed for 24 h data points with 0.5% methyl cellulose+2% Tween80 in water, and 24 h in water (ID-30-4, ID-30-9 and ID-30-10). HPLC samples of ID-30-4 and 30-9 (those containing the methyl cellulose/Tween80 mixture) were diluted 10× with ACN. These samples plus a new set of injections of the calibration points were analyzed, a new response factor was determined, and the solubility of the remaining samples was calculated (response factor: 8084.7908; R2: 0.9989).

T1 sequence (P10636 561-685 limits assumed): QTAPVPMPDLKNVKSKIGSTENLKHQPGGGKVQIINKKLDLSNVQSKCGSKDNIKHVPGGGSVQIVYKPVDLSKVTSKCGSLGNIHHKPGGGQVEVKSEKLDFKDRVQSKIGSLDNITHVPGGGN

reduction in Tau fibril content [1] | inhibition of αSynuclein aggregation (normalized ThT fluorescence vs vehicle) [2] | DVS Change Mass (wt. %) ([4]; 2-95% RH) | DVS Change Mass (wt. %) ([4]; 15-75% RH) | Solubility at 24 hours (mg/mL) ([5]; 0.5% MC + 2% Tween80 (aq), Phenomenex Luna Phenyl Hexyl HPLC column and modified method, listed as A (melted)) | Conc. (mg/mL) at 30 min ([5]; 0.5% MC + 2% Tween80 (aq.), listed as A (melted)) | solubility at 24 h ([5]; 0.5% methyl cellulose + 2% Tween80 in water, aqueous with cosolvent or surfactant or cyclodextrin, 0.5% MC + 2% Tween80 (aq), Phenomenex Luna Phenyl Hexyl HPLC column and modified method) | Conc. (mg/mL) at 30 min ([5]; FaSSGF) | Solubility at 24 hours (mg/mL) ([5]; FaSSGF) | Conc. (mg/mL) at 30 min ([5]; FaSSIF, listed as A (melted)) | solubility at 24 h ([5]; Fasted-State Simulated Intestinal Fluid (FaSSIF), fassif) | Conc. (mg/mL) at 30 min ([5]; FeSSIF, listed as A (melted)) | solubility at 24 h ([5]; Fed-State Simulated Intestinal Fluid (FeSSIF), fessif) | Conc. (mg/mL) at 30 min ([5]; water) | Solubility at 24 hours (mg/mL) ([5]; water) | Solubility at 24 hours (mg/mL) ([5]; water, listed as A (melted)) | SMILES | inhibition of RSL3-induced αSynuclein aggregation [3]
did not have a significant reduction | not statistically significant | – | – | – | – | – | – | – | – | – | – | – | – | – | – | CCCCCCCC1=C(C)C(=O)C(C)=C(C)C1=O [Compound C7, 2,3,5-trimethyl-6-heptylcyclohexa-2,5-diene-1,4-dione] | did not demonstrate any inhibition
– | – | 0.073 wt. % | 0.044 wt. % | 0.28# mg/mL | 0.22 mg/mL | 0.28 mg/mL | BDL | BDL | 0.02 mg/mL | 0.04 mg/mL (≈ 145 µM) | 0.25 mg/mL | 0.2 mg/mL (≈ 724 µM) | BDL | BDL | BDL# | CCCCCCCCCC1=C(C)C(=O)C(C)=C(C)C1=O [Melted Pattern A, 2,3,5-trimethyl-6-nonylcyclohexa-2,5-diene-1,4-dione] | –
